The numbers were not newly measured in patent publication US7714131B2, “Process for the stereoselective preparation of (−)-halofenate and derivatives thereof” (Metabolex, Inc., priority 2005, dated 2010), which cites them from elsewhere.

The structures appear in SMILES notation.

The data set concerns the target cytochrome P450 2C9 (Homo sapiens, UniProt P11712). Conditions: compared to the (+)-enantiomer of halofenic acid.

Chain of cytochrome P450 2C9 (P11712 whole entry): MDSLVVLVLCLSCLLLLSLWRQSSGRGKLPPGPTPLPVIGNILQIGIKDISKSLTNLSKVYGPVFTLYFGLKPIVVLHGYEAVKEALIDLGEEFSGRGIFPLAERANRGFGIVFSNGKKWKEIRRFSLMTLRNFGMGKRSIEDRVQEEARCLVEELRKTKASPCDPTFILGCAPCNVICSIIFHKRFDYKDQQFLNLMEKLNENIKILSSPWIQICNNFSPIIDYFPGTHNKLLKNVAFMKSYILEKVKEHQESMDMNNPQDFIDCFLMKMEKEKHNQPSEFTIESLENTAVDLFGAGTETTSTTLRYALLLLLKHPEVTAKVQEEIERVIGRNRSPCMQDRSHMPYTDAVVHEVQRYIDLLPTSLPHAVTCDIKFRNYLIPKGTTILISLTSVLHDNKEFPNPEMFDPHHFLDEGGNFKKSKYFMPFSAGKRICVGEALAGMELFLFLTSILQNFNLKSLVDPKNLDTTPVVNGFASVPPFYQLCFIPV

As for `O=C(O)C(Oc1cccc(C(F)(F)F)c1)c1ccc(Cl)cc1` (single isomer, unassigned; (-)) [(−)-enantiomer of halofenic acid, (4-chlorophenyl)(3-trifluoromethylphenoxy)acetic acid], the “ability to inhibit cytochrome P450 2C9, relative activity” value is on record as “about twenty-fold less active”.
